Measured values reported in paper PMC9386499, “Integrated regulation of PKA by fast and slow neurotransmission in the nucleus accumbens controls plasticity and stress responses” (The Journal of Biological Chemistry, 2022).
No end group written: not given here.

How the values were obtained:
[1] = tested on: D1R neurons (NAc); assay: Whole-cell patch-clamp recordings of D1R-expressing neurons (EPSP, LTP, AMPA/NMDA ratio); type: cell-based, mouse; conditions: NBQX 10 μM after APV 20 μM
Text: For whole-cell recordings, Drd2-EGFP FVB mice were deeply anesthetized and transcardially perfused with ice-cold cutting artificial cerebrospinal fluid containing (in mM): 87 NaCl, 2.5 KCl, 0.5 CaCl2, 7 MgCl2, 1.25 NaH2PO4, 25 NaHCO3, 25 glucose, and 75 sucrose, bubbled with 95% O2/5% CO2. Parasagittal slices were cut transversely at 300 μm using a vibrating blade microtome (VT1200S, Leica Microsystems). Slices were transferred to normal saline solution containing (in mM): 119 NaCl, 2.5 KCl, 2.5 CaCl2, 1.3 MgCl2, 1.3 NaH2PO4, 26 NaHCO3, and 20 glucose at 32 °C for 30 min and then allowed to recover for 1 h at room temperature before recordings. Individual slices were transferred to a submerged chamber mounted on a fixed-stage upright microscope (Zeiss Axioskop FS) and continuously perfused at 30 °C with normal saline solution containing (in μM): 0 MgCl2, 50 picrotoxin, and 10 glycine. GFP-negative D1 cells were visualized by infrared differential interference contrast microscopy with a water-immersion 63X objective (0.9 NA, Zeiss). Current clamp recordings were performed with unpolished pipettes containing (in mM): 140 K-gluconate, 5 KCl, 2 MgCl2, 10 Hepes, 4 Mg-ATP, 0.3 Na-GTP, 10 Na2-creatine phosphate, 0.2 Na-EGTA, 290 to 300 mOsm, pH 7.3 (final resistance, 3-4MΩ). LTP of EPSPs was induced by HFS in control and RIIβ siP-treated D1 cells (at −70 mV). […]

[2] = tested on: phospho-Thr69 RIIβ; assay: Slice pharmacology, immunoblot of phospho-Thr69 RIIβ; type: cell-based, rat
Experimental: (§1) Slice pharmacology was conducted as previously described ([62]). Briefly, striatum was microdissected from 350 μ coronal rat brain slices, equilibrated for 1 h, 30 °C in Kreb’s buffer with 10 μg/ml adenosine deaminase (Roche). […] Briefly, conditions included low Mg^2+ (0.5 mM) and a 30 min tissue recovery in drug-free buffer prior to harvest. Tissue was snap-frozen on dry ice. Immunoblotting was as previously described ([63]) and analyzed using Image J software (NIH). Data from immunoblots with phosphorylation-specific antibodies were normalized to total protein. Antibodies used included those for PKA regulatory subunits (BD Biosciences Cat# 610626, RRID: AB_397958; BD Biosciences Cat# 610609 RRID:AB_397943; BD Biosciences Cat# 612242 RRID:AB_399565), phospho-S114 RIIβ (BD Biosciences Cat# 612550 RRID:AB_399845), and NMDAR1 (BD Biosciences Cat# 556308 RRID:AB_396353), phospho-S845 GluA1 (PhosphoSolutions Cat# p1160-845 RRID:AB_2492128) and phospho-T34 DARPP-32 (PhosphoSolutions Cat# p1025-34 RRID:AB_2492068), and total GluA1 (Millipore Cat# 05-855R RRID:AB_1587070). Total DARPP-32 antibody was from H. Hemmings (Weill Cornell Medical College).

[3] = tested on: phospho-Ser114 RIIβ; assay: Slice pharmacology, immunoblot of phospho-Ser114 RIIβ; type: cell-based, rat; conditions: striatal slices, NMDA 50 μM, 5 min; *p < 0.05, n = 4
Experimental: as §1

[4] = tested on: cortico-ventral striatal synapses (NAc); assay: Cortico-ventral striatal field recordings (fEPSP, LTP, I/O, PPR); type: cell-based, rat; conditions: slices
Experimental: Adult rats were anaesthetized by isoflurane (Piramal Healthcare), and brains were placed in ice-cold sucrose saline solution (4 °C) containing (in mM): 87 NaCl, 75 Sucrose, 2.5 KCl, 1.25 NaH2PO4, 7 MgCl2, 0.5 CaCl2, 25 NaHCO3, and 10 glucose (pH 7.4; saturated with […]). Parasagittal vibratome slices (350 μ thick) containing prefrontal cortex and NAc core were transferred into saline solution containing 125 NaCl, 2.5 KCl, 1.25 NaH2PO4, 1.3 MgCl2, 2 CaCl2, 25 NaHCO3, and 25 glucose (pH 7.4; saturated with […]) and maintained for 20 min at 30 °C, then transferred to room temperature (22–25 °C) and allowed 1 h recovery. […]
Extracellular recordings: fEPSPs were obtained at 25 °C in the presence of the GABAA antagonist (SR95531, Gabazine, 2 μM) and were evoked by square current pulses (0.2 ms) at 0.033 Hz with a bipolar stimulation electrode (FHC) placed at the border of corpus callosum separated by ∼300 to 500 μ from the recording electrode. […] The paired pulse ratio (PPR) paradigm was applied using different inter-stimulus intervals and PPR changes were measured as PPR = second fEPSP amplitude/first fEPSP amplitude. After recording stable baseline for at least 10 min, LTP was induced by HFS (4 trains, 100 Hz, 1 s duration, separated by 20 s). fEPSP amplitude was monitored for at least 50 min after HFS to evaluate LTP. […]

[5] = tested on: rats; assay: Forced swim test (FST) after intra-accumbens infusion; type: in vivo, rat; conditions: ketamine 2 µg in 1 µl, subanesthetic, bilateral intra-accumbal
Experimental: Rats were anesthetized with isoflurane and placed in a stereotaxic frame (Kopf Instruments). Bilateral cannulas (3 mm center-to-center distance, cut 8 mm below pedestal, Plastics One) were placed in NAc core (anterior-posterior to bregma +1.5 mm, medial/lateral ±1.5 mm, depth −6.8 mm). Peptides were bilaterally infused 1 week later in awake and mobile animals. Injection volume was 1 μl of peptide (100 μM in PBS, 10% DMSO, per cerebral hemisphere). Animals were allowed to recover for 1 h prior to behavioral testing. Accuracy was confirmed by infusion of methylene blue dye or direct visualization of cannula tracts postbehavioral testing.
The Porsolt FST was conducted as described previously ([64]). Briefly, one-trial forced swim was used for acute stress. Nonsurgerized rats underwent an 8 min swim in an 8-gallon transparent water filled cylinder at 24 to 25 °C. Animals recovered in their home cages for 1 h prior to brain dissection. The NAc was then microdissected for immunoblotting. […] They were then placed in a locomotor chamber, and locomotor activity was monitored for 30 min in circular donut-shaped locomotor chambers in the dark with a computer-monitored infrared photobeam system (MED-PC, Med Associates). […] The last 6 min of the test were scored for latency to immobility and time immobile, with immobility defined as the time animals spent completely motionless.

[6] = tested on: PKA; assay: PKA inhibition curves for WT versus S114D RIIβ (in vitro); type: biochemical; conditions: means ± S.E.M., n = 3
Experimental: (§2) Rat recombinant RIIβ was derived as a C-terminal 6XHis fusion by Ni-NTA affinity purification using standard pET vector methods (Novagen). RIIβ was phosphorylated in vitro by Cdk5 or PKA using standard conditions ([55]). Cdk5/p25 was from Millipore, and PKA was from NEB. 32P incorporation was quantitated by PhosphorImager analysis. All kinetic analyses were conducted under empirically defined linear conditions. PKA activity was measured by phosphorylation of recombinant inhibitor-1 ([56]) or DARPP-32 ([14]). For phosphorylation site identification, preparatively phosphorylated RIIβ was subjected to nano-liquid chromatography tandem mass spectrometry as previously described ([57]). Digests were redissolved in 0.1% trifluoracetic acid and loaded onto a ZipTip with C18 resin (Millipore) for purification. Analysis was conducted using nanoelectrospray-QSTAR Pulsar I quadrupole time-of-flight tandem mass spectrometry (MDS Proteomics). Structural model of AKAP/RIIβ dimer interaction was based on published data of AKAP (PDB: 2HWN) ([24]) and RIIβ (PDB: 1CX4) ([58]).

[7] = tested on: Cdk5; assay: In vitro phosphorylation of RIIβ by Cdk5 (stoichiometry); type: biochemical; conditions: saturating conditions, 32P incorporation
Experimental: as §2

[8] = target: T1, Cdk5-dependent phosphorylation of RIIβ (Homo sapiens, UniProt Q00535); assay: Inhibition of Cdk5-dependent phosphorylation of RIIβ in vitro by siP; type: biochemical; conditions: means ± S.E.M.
T1 construct: purchased Millipore
Experimental: as §2

[9] = tested on: PKA; assay: PKA inhibition by dephospho- vs. phospho-T69 RIIβ; type: biochemical; conditions: in vitro, n=4
Experimental: as §2

T1 sequence (Q00535 whole entry): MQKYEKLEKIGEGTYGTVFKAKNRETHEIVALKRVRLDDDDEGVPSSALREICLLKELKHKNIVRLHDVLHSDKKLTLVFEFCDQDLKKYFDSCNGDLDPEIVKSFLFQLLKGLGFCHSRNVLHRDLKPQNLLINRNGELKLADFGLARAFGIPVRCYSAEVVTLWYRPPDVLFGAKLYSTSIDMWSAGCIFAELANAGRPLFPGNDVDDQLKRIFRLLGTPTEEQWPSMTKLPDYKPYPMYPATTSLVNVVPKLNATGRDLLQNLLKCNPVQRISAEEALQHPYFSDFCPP
T1 sequence (Q15078 99-307 partner limits assumed): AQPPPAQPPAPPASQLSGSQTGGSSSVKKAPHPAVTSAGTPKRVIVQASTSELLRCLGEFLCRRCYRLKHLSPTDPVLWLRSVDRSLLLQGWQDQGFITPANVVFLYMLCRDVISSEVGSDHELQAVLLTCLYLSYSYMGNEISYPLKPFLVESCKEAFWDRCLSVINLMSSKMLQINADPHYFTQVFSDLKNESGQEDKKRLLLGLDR

NS(=O)(=O)c1cccc2c1c([N+](=O)[O-])cc1nc(O)c(O)nc12 [NBQX]
effect on EPSP responses, D1R neurons [1]: ablated EPSP responses

CN[C@H](CC(=O)O)C(=O)O [NMDA, N-methyl-D-aspartate]
phospho-Thr69 RIIβ, NMDA ([2]; striatal slices, NMDA 50 μM, 5 min, *p < 0.05, n = 4): strongly reduced the phosphorylation state of Thr69 | phospho-Thr69 RIIβ, LTP-like conditions ([2]; ventral striatal slices, low Mg2+, NMDA 25 μM, 5 min and/or dopamine 10 μM, 15 min, 30 min delay after treatment, n = 5 to 6): decrease in phospho-Thr69 RIIβ | phospho-Ser114 RIIβ, NMDA [3]: PKA-dependent phosphorylation at Ser114 was increased

Oc1cc2c(c(Cl)c1O)CCNCC2c1ccccc1 (centres unmarked) [SKF81297]
LTP (HFS-induced), D1 agonist ([4]; SKF81297 2 µM, 15 min bath application, #p < 0.05 control vs SKF, n = 7): enhanced

CNC1(c2ccccc2Cl)CCCCC1=O (centres unmarked) [ketamine]
RIIβ siP effects compared with ketamine in FST [5]: closely mimicked

C=C1[C@@H](O)[C@@H]2O[C@]3(CC[C@H](/C=C/[C@@H](C)[C@@H]4CC(C)=C[C@@]5(O[C@H](C[C@@](C)(O)C(=O)O)CC[C@H]5O)O4)O3)CC[C@H]2O[C@@H]1[C@@H](O)C[C@H](C)[C@H]1O[C@@]2(CCCCO2)CC[C@H]1C [okadaic acid]
basal phospho-Thr69 RIIβ, okadaic acid 200 nM ([2]; striatal slices, 200 nM, 1 h (selective PP2A inhibition), *p < 0.05, n = 4-5): increased | basal phospho-Thr69 RIIβ, okadaic acid 1 μM ([2]; striatal slices, 1 μM, 1 h (PP1 inhibition), **p < 0.01, n = 4-5): increased | effect on NMDA-induced reduction of phospho-Thr69 RIIβ ([2]; striatal slices, NMDA 25 µM, 5 min, cyclosporin A 10 µM, 1 h or okadaic acid 1 µM, 1 h, n = 4-6): attenuated the effect of NMDA

RIIβ: Rat recombinant RIIβ, C-terminal 6XHis fusion; PKA regulatory subunit
IC50 [6]: 0.0015 ± 0.0003 µM | maximal stoichiometry of phosphorylation by Cdk5 [7]: 0.6 mol PO4/mol of substrate

RQIKIWFQNRRMKWKK-AAGAGSGAVAFKGANGEA [scrambled siP, penetratin-tagged scramble control peptide]
fEPSP amplitude after HFS (LTP) ([4]; 10 μM for 15 min, washout 25 min, maintained through 50 min following HFS, 25 °C, n = 5): 0.31 ± 0.03 mV

RQIKIWFQNRRMKWKKAGAAAGGGTPSKGVNFAEE [RIIβ siP]
IC50 [8]: 7.14 ± 2.28 µM

Thr69 RIIβ: RIIβ phosphorylated at Thr69 by Cdk5
effect of Thr69 phosphorylation on inhibition of PKA catalytic activity by RIIβ [9]: did not alter the inhibition of PKA catalytic activity
